The test relates to P388 leukemia ip, CD2F1 mice, survival T/C. Briefly: NCI In Vivo Anticancer Drug Screen. Data for tumor model P388 Leukemia (intraperitoneal) in CD2F1 (CDF1) mice. The settings on record: endpoint: median survival time, higher = longer survival. The essentials: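 Mice carrying the transplanted tumor received test compound or vehicle. Survival was recorded in each group, and the value is the treated-group measurement divided by that of the vehicle-treated control group.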

[1] abbreviates: dose: 60.0 mg/kg/injection, schedule: Q01DX005 (ip), vehicle: saline with Tween-80.
The mark [2] stands for this setting: dose: 120.0 mg/kg/injection, schedule: Q01DX005 (ip), vehicle: saline with Tween-80.
The mark [3] stands for this setting: dose: 240.0 mg/kg/injection, schedule: Q01DX005 (ip), vehicle: saline with Tween-80.
[4] abbreviates: dose: 60.0 mg/kg/injection, schedule: Q01DX005 (ip), vehicle: saline.
[5] abbreviates: dose: 120.0 mg/kg/injection, schedule: Q01DX005 (ip), vehicle: saline.
Setting [6] is: dose: 50.0 mg/kg/injection, schedule: Q01DX005 (ip), vehicle: saline with Tween-80.
The mark [7] stands for this setting: dose: 50.0 mg/kg/injection, schedule: Q01DX009 (ip), vehicle: saline.
[8] abbreviates: dose: 100.0 mg/kg/injection, schedule: Q01DX009 (ip), vehicle: saline.
Setting [9] is: dose: 200.0 mg/kg/injection, schedule: Q01DX009 (ip), vehicle: saline.
The mark [10] stands for this setting: dose: 50.0 mg/kg/injection, schedule: Q01DX005 (ip), vehicle: Klucel (hydroxypropylcellulose) (HPC).
Setting [11] is: dose: 100.0 mg/kg/injection, schedule: Q01DX005 (ip), vehicle: Klucel (hydroxypropylcellulose) (HPC).
Setting [12] is: dose: 200.0 mg/kg/injection, schedule: Q01DX005 (ip), vehicle: Klucel (hydroxypropylcellulose) (HPC).
Where [13] appears, read: dose: 12.5 mg/kg/injection, schedule: Q01DX009 (ip), vehicle: saline.
Setting [14] is: dose: 12.5 mg/kg/injection, schedule: Q01DX005 (ip), vehicle: saline with Tween-80.
[15] abbreviates: dose: 25.0 mg/kg/injection, schedule: Q01DX005 (ip), vehicle: saline with Tween-80.

Each structure is given as a SMILES string. “And” between values parts separate entries of the source, which are not always exact repeats. Equal entries are not always repeated. Toxic doses and inconclusive results are not listed.

In the case of `C=CCOc1ccccc1N/N=C(\Cl)C(=O)OCC`, the T/C runs as follows: (dose: 12.5 mg/kg/injection, schedule: Q01DX009 (ip), vehicle: saline with Tween-80) 124 % of control; (dose: 25.0 mg/kg/injection, schedule: Q01DX009 (ip), vehicle: saline with Tween-80) 120 % of control; (dose: 50.0 mg/kg/injection, schedule: Q01DX009 (ip), vehicle: saline with Tween-80) 121 % of control.
Regarding `COc1ccccc1N=Nc1c(-c2cccs2)nn(C(=S)SC)c1C(F)(F)F`, the T/C was 92 % of control under setting [1], 97 % of control under setting [2] and 97 % of control under setting [3].
`N#CC(C#N)=CNc1ccccc1C(=O)NCCCn1ccnc1`: the T/C is, setting by setting: under setting [1], 93 % of control; under setting [2], 93 % of control; under setting [3], 95 % of control.
As for `Cc1nc(Br)c(Br)n1C`, the T/C is 93 % of control under setting [1] and 88 % of control under setting [2].
In the case of `COC(C(=O)CN(C)C)(c1ccccc1)c1ccccc1`, the T/C was 107 % of control under setting [4]; 99 % of control under setting [5]; 105 % of control (dose: 240.0 mg/kg/injection, schedule: Q01DX005 (ip), vehicle: saline).
Consider `S=C(Nc1ccccc1)Nc1ncccn1`, for which the T/C is 111 % of control (dose: 50.0 mg/kg/injection, schedule: Q01DX009 (ip), vehicle: Klucel (hydroxypropylcellulose) (HPC)) and 99 % of control (dose: 100.0 mg/kg/injection, schedule: Q01DX009 (ip), vehicle: Klucel (hydroxypropylcellulose) (HPC)).
`COC(=O)C(Cc1c[nH]c2ccccc12)NC(=O)C(CCCCN)N(C(=O)OCc1ccccc1)C(=O)OCc1ccccc1` (stereo unspecified): the T/C was 92 % of control under setting [6]; 91 % of control (dose: 100.0 mg/kg/injection, schedule: Q01DX005 (ip), vehicle: saline with Tween-80); 86 % of control (dose: 200.0 mg/kg/injection, schedule: Q01DX005 (ip), vehicle: saline with Tween-80).
`CC1OC(OC2CCCc3c(O)c4c(c(O)c32)C(=O)c2ccccc2C4=O)CC(N)C1O` (stereo unspecified): the T/C was 104 % of control and 106 % of control (dose: 1.25 mg/kg/injection, schedule: Q04DX002 (ip), vehicle: water); 98 % of control and 111 % of control (dose: 2.5 mg/kg/injection, schedule: Q04DX002 (ip), vehicle: water); 98 % of control and 106 % of control (dose: 5.0 mg/kg/injection, schedule: Q04DX002 (ip), vehicle: water); 98 % of control and 106 % of control (dose: 10.0 mg/kg/injection, schedule: Q04DX002 (ip), vehicle: water).
In the case of `COC(=O)CS(=O)(=O)CCCCS(=O)(=O)CC(=O)OC`, the T/C is 99 % of control under setting [7], 99 % of control under setting [8] and 103 % of control under setting [9].
Consider `O=C(Nc1ccc(Cl)cc1C(F)(F)F)Oc1ccc(-c2ccccc2)cc1Br`, for which the T/C reads like this: under setting [7], 95 % of control; under setting [8], 88 % of control; under setting [9], 97 % of control.
`C(=NCCC[Si]12OCCN(CCO1)CCO2)c1ccc(C=NCCC[Si]23OCCN(CCO2)CCO3)cc1`: the T/C runs as follows: under setting [10], 95 % of control; under setting [11], 97 % of control; under setting [12], 95 % of control.
As for `CCc1ccc2c(c1OCOC)CCC2`, the T/C by setting is: (dose: 100.0 mg/kg/injection, schedule: Q04DX002 (ip), vehicle: saline with Tween-80) 100 % of control; (dose: 200.0 mg/kg/injection, schedule: Q04DX002 (ip), vehicle: saline with Tween-80) 100 % of control; (dose: 400.0 mg/kg/injection, schedule: Q04DX002 (ip), vehicle: saline with Tween-80) 95 % of control.
For the compound `CCOC(=O)NN`, the T/C reads like this: under setting [13], 111 % of control; (dose: 25.0 mg/kg/injection, schedule: Q01DX009 (ip), vehicle: saline) 92 % of control.
`CN(Cc1nc2ccccc2[nH]1)N=O`: the T/C is, setting by setting: (dose: 100.0 mg/kg/injection, schedule: Q01DX001 (ip), vehicle: Klucel (hydroxypropylcellulose) (HPC)) 97 % of control; (dose: 200.0 mg/kg/injection, schedule: Q01DX001 (ip), vehicle: Klucel (hydroxypropylcellulose) (HPC)) 107 % of control; (dose: 400.0 mg/kg/injection, schedule: Q01DX001 (ip), vehicle: Klucel (hydroxypropylcellulose) (HPC)) 102 % of control.
Consider `CC(=O)SC1C(=O)N(C)C(SC(C)=O)C(=O)N1C` (stereo unspecified), for which the T/C was 107 % of control (dose: 6.25 mg/kg/injection, schedule: Q01DX009 (ip), vehicle: saline) and 110 % of control under setting [13].
In the case of `CCOC(=O)Nc1ccc(SCC2COC(Cn3ccnc3)(c3ccc(Cl)cc3Cl)O2)cc1` (stereo unspecified), the T/C runs as follows: (dose: 12.5 mg/kg/injection, schedule: Q01DX001 (ip), vehicle: saline) 104 % of control; (dose: 25.0 mg/kg/injection, schedule: Q01DX001 (ip), vehicle: saline) 107 % of control; (dose: 50.0 mg/kg/injection, schedule: Q01DX001 (ip), vehicle: saline) 110 % of control.
For `COC(=O)n1c(=O)oc2c(Br)cc(Br)cc21`, the T/C reads like this: under setting [10], 103 % of control; under setting [11], 106 % of control; under setting [12], 103 % of control.
For the compound `CC1=C(N2CCOCC2)C(N2CCOCC2)C(C)C1=O` (stereo unspecified), the T/C runs as follows: under setting [10], 100 % of control; under setting [11], 101 % of control; under setting [12], 100 % of control.
On to `C=C1C(=O)C2=CC1CCC(=O)C1(C)C(OC(C)=O)CC(OC(C)=O)C(C)(C)C1CC2O` (stereo unspecified), for which the T/C by setting is: (dose: 17.5 mg/kg/injection, schedule: Q01DX005 (ip), vehicle: Klucel (hydroxypropylcellulose) (HPC)) 108 % of control; (dose: 35.0 mg/kg/injection, schedule: Q01DX005 (ip), vehicle: Klucel (hydroxypropylcellulose) (HPC)) 109 % of control; (dose: 70.0 mg/kg/injection, schedule: Q01DX005 (ip), vehicle: Klucel (hydroxypropylcellulose) (HPC)) 111 % of control.
With `CC1(C)OP(=O)(O)C=C1[Se]c1ccccc1`, the T/C is, setting by setting: under setting [10], 100 % of control; under setting [11], 102 % of control; under setting [12], 94 % of control.
Turning to `CCC(O)c1ccco1` (stereo unspecified), the T/C is 109 % of control under setting [14]; 100 % of control under setting [15]; 111 % of control and 112 % of control under setting [6].
For the compound `CC(C)C(OCc1ccccc1)C(=O)O` (stereo unspecified), the T/C runs as follows: (dose: 50.0 mg/kg/injection, schedule: Q01DX009 (ip), vehicle: alcohol) 88 % of control; (dose: 100.0 mg/kg/injection, schedule: Q01DX009 (ip), vehicle: alcohol) 98 % of control; (dose: 200.0 mg/kg/injection, schedule: Q01DX009 (ip), vehicle: alcohol) 104 % of control.
As to `CCCc1cc2c(=O)c(C(=O)OC)c[nH]c2cc1N(CC)CC`, the T/C runs as follows: under setting [10], 96 % of control; under setting [11], 100 % of control; under setting [12], 104 % of control.
Take `c1ccc2sc(NCCSSCCNc3nc4ccccc4s3)nc2c1`: the T/C is, setting by setting: (dose: 25.0 mg/kg/injection, schedule: Q01DX009 (ip), vehicle: other) 100 % of control; (dose: 50.0 mg/kg/injection, schedule: Q01DX009 (ip), vehicle: other) 86 % of control and 92 % of control; (dose: 100.0 mg/kg/injection, schedule: Q01DX009 (ip), vehicle: other) 90 % of control; (dose: 200.0 mg/kg/injection, schedule: Q01DX009 (ip), vehicle: other) 90 % of control and 93 % of control.
In the case of `CC1=C(C(=O)Nc2ccccc2)C(/C=C/c2ccccc2)C(C(=O)Nc2ccccc2)=C(C)N1`, the T/C reads like this: (dose: 25.0 mg/kg/injection, schedule: Q01DX001 (ip), vehicle: saline with Tween-80) 92 % of control; (dose: 50.0 mg/kg/injection, schedule: Q01DX001 (ip), vehicle: saline with Tween-80) 89 % of control; (dose: 100.0 mg/kg/injection, schedule: Q01DX001 (ip), vehicle: saline with Tween-80) 96 % of control.
As for `CCN(CC)C1=CC(=O)OC1OC` (stereo unspecified), the T/C runs as follows: under setting [4], 95 % of control; under setting [5], 94 % of control.
For `CC1(CBr)C2CCC1C(=O)C2` (stereo unspecified), the T/C was 100 % of control (dose: 6.25 mg/kg/injection, schedule: Q01DX005 (ip), vehicle: saline with Tween-80); 96 % of control under setting [14]; 96 % of control under setting [15].
As to `NC(=O)C/C(N)=N/O`, the T/C reads like this: (dose: 50.0 mg/kg/injection, schedule: Q01DX005 (ip), vehicle: saline) 98 % of control; (dose: 100.0 mg/kg/injection, schedule: Q01DX005 (ip), vehicle: saline) 101 % of control; (dose: 200.0 mg/kg/injection, schedule: Q01DX005 (ip), vehicle: saline) 100 % of control.

The record behind these values is PubChem BioAssay AID330 (DTP/NCI, 2004).
